# ChEMBL document CHEMBL1134703, “Simplified catechin-gallate inhibitors of HIV-1 reverse transcriptase” (Bioorg Med Chem Lett, 2001)
# Molecular target: Human immunodeficiency virus type 1 reverse transcriptase (Human immunodeficiency virus 1, UniProt Q72547)
# Experiment: Inhibition of polymerization in wild type HIV-1 RT with poly rC/dG12-18 template primer and [3H]dGTP
row,SMILES,IC50
1,O=C(OC1COc2cc(O)cc(O)c2C1)c1ccc(O)c(O)c1O (stereo not drawn),3.83 µM
2,O=C(OC1COc2cc(O)cc(O)c2C1)c1ccc(O)cc1O (stereo not drawn),96.3 µM
3,O=C(OCCC1COc2cc(O)c(O)cc2C1)c1ccc(O)c(O)c1O (stereo not drawn),10.7 µM
4,O=C(OC1COc2cc(O)cc(O)c2C1)c1cccc(O)c1 (stereo not drawn),> 100 µM
5,O=C(OC1COc2cc(O)cc(O)c2C1)c1ccccc1 (stereo not drawn),> 100 µM
6,O=C(OC1COc2cccc(O)c2C1)c1ccc(O)c(O)c1O (stereo not drawn),45.5 µM
7,O=C(OC1COc2ccccc2C1)c1ccc(O)c(O)c1O (stereo not drawn),> 100 µM
8,O=C(OC1COc2cc(O)cc(O)c2C1)c1cccc(O)c1O (stereo not drawn),37.2 µM
9,O=C(OC1COc2cc(O)ccc2C1)c1ccc(O)c(O)c1O (stereo not drawn),36.3 µM
10,Oc1cc(O)c2c(c1)O[C@H](c1ccc(O)c(O)c1)[C@H](O)C2 [(-)-EPICATECHIN],> 100 µM
11,O=C(O[C@@H]1Cc2c(O)cc(O)cc2O[C@@H]1c1ccc(O)c(O)c1)c1cc(O)c(O)c(O)c1 [EPICATECHIN GALLATE],0.76 µM
12,O=C(O[C@@H]1Cc2c(O)cc(O)cc2O[C@@H]1c1cc(O)c(O)c(O)c1)c1cc(O)c(O)c(O)c1 [EPIGALOCATECHIN GALLATE],0.73 µM
13,O=C(O)c1cc(O)c(O)c(O)c1 [GALLIC ACID],> 100 µM
